# Experiment: physchem
# Format: physicochemical
# Settings: fassif, pH 6.8, Solubility in FaSSIF µg/ml
# Experimental: Compound solubility determination
# An amount of 3 mg solid compound with LC-MS purity ≥ 95% was required. This amount was split between 3 different glass vials (1.8 ml volume each), placing 1 mg compound into each one.
# Organic solvents of HPLC grade were used. Ultra pure water (Milli-Q grade) was used. Buffers were prepared with ultra pure water and filtered using 0.45 […] cameo filters. The compositions of each solvent employed in this assay are described below (part III).
# For each of the three vial samples prepared as described above, in which the amount of compound was totally dissolved, the following procedure was subsequently carried out: • a) A small amount (approx. 0.1mg) of additional solid compound was added to the vial to maintain an excess of the compound in the mixture in the form of undissolved solid. • b) The samples were magnetically stirred for 24 hr. If required, additional solid compound (0.1mg) was added to maintain excess of it and then the samples were stirred again. • c) Then the samples were filtered (Millipore Milex filters nylon 0.2 um) and three aliquots were taken (one from each of the three vials) and analysed by LC-MS. • d) The pH of the final solution in each sample was measured with a pH-meter (WTW pH330i and a pH-electrode Sentix 41).
# All filtered aliquots were analysed by LC-MS. […]
row,solubility [µg/mL],SMILES
1,1 to 5,"CC1=C(Cl)C(=O)C(CO)(c2ccc(Oc3ccc(OC(F)(F)F)cc3)cc2)CN1 (centres unmarked) [Example 1, 3-Chloro-5-(hydroxymethyl)-2-methyl-5-[4-({4-[(trifluoromethyl)oxy]phenyl}oxy)phenyl]-4(1H)-pyridinone]"
2,5 to 10,"Cc1[nH]c(C=NO)c(-c2ccc(Oc3ccc(OC(F)(F)F)cc3)cc2)c(=O)c1Cl [Example 5, 5-Chloro-6-methyl-4-oxo-3-[4-({4-[(trifluoromethyl)oxy]phenyl}oxy)phenyl]-1,4-dihydro-2-pyridinecarbaldehyde oxime]"

# Source: patent EP1862459A1, “Novel heterocyclic compounds” (GLAXO GROUP LIMITED, priority 2006, dated 2007)
